pIC50: −log10 of the molar value.
Target: T1, aldo-keto reductase 1C3 (AKR1C3) (Homo sapiens, UniProt P42330)
T1 construct: recombinant hAKR1C3 expressed in E. coli Rosetta (DE3), pET21b
Test: NADPH oxidation at […] nm with […],10-phenanthrenequinone, recombinant enzyme; also coumberone reduction in […]1 cells
Type: biochemical

T1 sequence (P42330 whole entry): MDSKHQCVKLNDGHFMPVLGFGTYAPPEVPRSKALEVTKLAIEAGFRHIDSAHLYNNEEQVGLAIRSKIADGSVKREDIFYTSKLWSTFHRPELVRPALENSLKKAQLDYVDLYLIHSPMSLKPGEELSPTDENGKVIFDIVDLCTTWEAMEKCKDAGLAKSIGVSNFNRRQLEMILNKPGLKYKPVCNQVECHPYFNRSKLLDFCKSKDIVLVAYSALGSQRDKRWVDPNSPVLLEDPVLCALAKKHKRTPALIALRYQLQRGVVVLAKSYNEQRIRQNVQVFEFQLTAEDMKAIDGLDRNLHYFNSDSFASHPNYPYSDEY

Structure (SMILES): COc1ccc(-c2oc3cc(OC)c(OC)c(O)c3c(=O)c2OC)cc1O [CAS, casticin]
- pIC50: 5.22

Reference: publication PMC12847094, “Casticin inhibits AKR1C3 and enhances abiraterone efficacy in castration-resistant prostate cancer” (Journal of Natural Medicines, 2025)
